Earlier results in publication PMC7114187 (Antiviral Research, 2008).

Test system: NA^WT(WSN) with H274Y mutation
Conditions: cited from earlier work

## CCOC(=O)C1=C[C@@H](OC(CC)CC)[C@H](NC(C)=O)[C@@H](N)C1 [Oseltamivir, oseltamivir]
  fold increase in the IC50 by H274Y mutation: 754 fold
